Data published in the supplement of paper PMC11208160.
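Also: IS621 bridge recombinase in Escherichia coli cells against a fixed T5 target plasmid.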

Assay: recombinant UMI read abundance after kanamycin selection (control-corrected) (log10(CPM+1)); higher = more efficient recombination; extreme values may be limits of the assay; sequences stand for … in AGTGCAGAGAAAATCGGCCAGTTTTCTCTGCCTGCAGTCCGCATGCCGTGGGACCCCTTGGGTTCTAACCTGTTGCCTAGATTTATGCAGCGGACTGCCTTTCTCCCAAAGTGATAAACCGG…AGGTTGGTTTCACT; site = the 11-nt donor
How it was run: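 Each donor and donor-binding-loop pair was tracked by a 12-nt UMI on a plasmid carrying a promoterless kanamycin gene. With a second plasmid supplying a fixed target and T7-inducible IS621 bridge recombinase, the pool was plated in Escherichia coli on IPTG (0.07 mM) plus kanamycin or unselected. Sequencing of recombinant UMIs across the donor–target junction gave counts expressed as log10(CPM+1) after replicate averaging and control-derived scaling.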
For “GAGTTGTCATGGACCGGTTTTCCCGGTAATCCGTATTTGTT (site GAGTTGTCTAA)”, the “recombinant UMI read abundance (log10)” value was 2.01.
In the case of “GATAAACCATGGACCGGTTTTCCCGGTAATCCGTATTTGGT (site GAAAAACCTAC)”, the “recombinant UMI read abundance (log10)” value is reported as 0.
For “GATAAACCATGGACCGGTTTTCCCGGTAATCCGTATTTGGT (site GACAAACCTAC)”, the “recombinant UMI read abundance (log10)” value was 0.
With “GATAAACCATGGACCGGTTTTCCCGGTAATCCGTATTTGGT (site GAGAAACCTAC)” the “recombinant UMI read abundance (log10)” value was 0.
For “GATAAACCATGGACCGGTTTTCCCGGTAATCCGTATTTGGT (site GATAAACCTAC)”, the “recombinant UMI read abundance (log10)” value was 0.
For “GATAAAGCATGGACCGGTTTTCCCGGTAATCCGTATTTGGG (site GATAAAGCTCC)”, the “recombinant UMI read abundance (log10)” value was 0.172.
For “GATACCACATGGACCGGTTTTCCCGGTAATCCGTATTTGCC (site GATACCACTGG)”, the “recombinant UMI read abundance (log10)” value was 1.33.
For “GATACTGCATGGACCGGTTTTCCCGGTAATCCGTATTTGCC (site GATACTGCTGG)”, the “recombinant UMI read abundance (log10)” value was 0.895.
In the case of “GATACTGCATGGACCGGTTTTCCCGGTAATCCGTATTTGCC (site GCTACTGCTGG)”, the “recombinant UMI read abundance (log10)” value is reported as 0.748.
For “GATACTGCATGGACCGGTTTTCCCGGTAATCCGTATTTGCC (site GGTACTGCTGG)”, the “recombinant UMI read abundance (log10)” value was 1.73.
For “GATACTGCATGGACCGGTTTTCCCGGTAATCCGTATTTGCC (site GTTACTGCTGG)”, the “recombinant UMI read abundance (log10)” value was 1.4.
With “GATAGACCATGGACCGGTTTTCCCGGTAATCCGTATTTGGC (site GATAGACCTGC)” the “recombinant UMI read abundance (log10)” value was 0.
In the case of “GATAGCACATGGACCGGTTTTCCCGGTAATCCGTATTTGCG (site GATAGCACTCG)”, the “recombinant UMI read abundance (log10)” value is reported as 0.578.
For “GATAGGACATGGACCGGTTTTCCCGGTAATCCGTATTTGAC (site GATAGGACTGT)”, the “recombinant UMI read abundance (log10)” value was 2.34.
In the case of “GATAGGACATGGACCGGTTTTCCCGGTAATCCGTATTTGAC (site GATCGGACTGT)”, the “recombinant UMI read abundance (log10)” value is reported as 0.114.
With “GATAGGACATGGACCGGTTTTCCCGGTAATCCGTATTTGAC (site GATGGGACTGT)” the “recombinant UMI read abundance (log10)” value was 0.531.
With “GATAGGACATGGACCGGTTTTCCCGGTAATCCGTATTTGAC (site GATTGGACTGT)” the “recombinant UMI read abundance (log10)” value was 0.386.
With “GATAGGACATGGACCGGTTTTCCCGGTAATCCGTATTTGTT (site GATAGGACTAA)” the “recombinant UMI read abundance (log10)” value was 1.43.
With “GATCATACATGGACCGGTTTTCCCGGTAATCCGTATTTGCT (site GATCATACTAG)” the “recombinant UMI read abundance (log10)” value was 1.82.
With “GATCCCGCATGGACCGGTTTTCCCGGTAATCCGTATTTGTC (site GATCCCGCTGA)” the “recombinant UMI read abundance (log10)” value was 0.846.
In the case of “GATCCGGCATGGACCGGTTTTCCCGGTAATCCGTATTTGAT (site GATCCGGCTAT)”, the “recombinant UMI read abundance (log10)” value is reported as 0.0999.
In the case of “GATGATCCATGGACCGGTTTTCCCGGTAATCCGTATTTGCT (site GATAATCCTAG)”, the “recombinant UMI read abundance (log10)” value is reported as 0.
For “GATGATCCATGGACCGGTTTTCCCGGTAATCCGTATTTGCT (site GATCATCCTAG)”, the “recombinant UMI read abundance (log10)” value was 0.
For “GATGATCCATGGACCGGTTTTCCCGGTAATCCGTATTTGCT (site GATGATCCTAG)”, the “recombinant UMI read abundance (log10)” value was 0.
In the case of “GATGATCCATGGACCGGTTTTCCCGGTAATCCGTATTTGCT (site GATTATCCTAG)”, the “recombinant UMI read abundance (log10)” value is reported as 0.
For “GATGATTCATGGACCGGTTTTCCCGGTAATCCGTATTTGTT (site GAAGATTCTAA)”, the “recombinant UMI read abundance (log10)” value was 0.433.
For “GATGATTCATGGACCGGTTTTCCCGGTAATCCGTATTTGTT (site GACGATTCTAA)”, the “recombinant UMI read abundance (log10)” value was 0.
With “GATGATTCATGGACCGGTTTTCCCGGTAATCCGTATTTGTT (site GAGGATTCTAA)” the “recombinant UMI read abundance (log10)” value was 0.
In the case of “GATGATTCATGGACCGGTTTTCCCGGTAATCCGTATTTGTT (site GATGATTCTAA)”, the “recombinant UMI read abundance (log10)” value is reported as 1.79.
For “GATGCCTCATGGACCGGTTTTCCCGGTAATCCGTATTTGTT (site GATGCCTCTAA)”, the “recombinant UMI read abundance (log10)” value was 0.895.
With “GATGGCTCATGGACCGGTTTTCCCGGTAATCCGTATTTGCC (site GATGGCTCTGG)” the “recombinant UMI read abundance (log10)” value was 2.65.
For “GATGGTTCATGGACCGGTTTTCCCGGTAATCCGTATTTGAT (site GATGGTTCTAT)”, the “recombinant UMI read abundance (log10)” value was 1.58.
In the case of “GATGTGTCATGGACCGGTTTTCCCGGTAATCCGTATTTGAC (site AATGTGTCTGT)”, the “recombinant UMI read abundance (log10)” value is reported as 1.67.
In the case of “GATGTGTCATGGACCGGTTTTCCCGGTAATCCGTATTTGAC (site CATGTGTCTGT)”, the “recombinant UMI read abundance (log10)” value is reported as 0.736.
With “GATGTGTCATGGACCGGTTTTCCCGGTAATCCGTATTTGAC (site GATGTGTCTGT)” the “recombinant UMI read abundance (log10)” value was 2.61.
For “GATGTGTCATGGACCGGTTTTCCCGGTAATCCGTATTTGAC (site TATGTGTCTGT)”, the “recombinant UMI read abundance (log10)” value was 0.677.
In the case of “GATTACCCATGGACCGGTTTTCCCGGTAATCCGTATTTGAG (site GATTACCCTCT)”, the “recombinant UMI read abundance (log10)” value is reported as 0.03.
In the case of “GATTACCCATGGACCGGTTTTCCCGGTAATCCGTATTTGCT (site GATTAACCTAG)”, the “recombinant UMI read abundance (log10)” value is reported as 0.
With “GATTACCCATGGACCGGTTTTCCCGGTAATCCGTATTTGCT (site GATTACCCTAG)” the “recombinant UMI read abundance (log10)” value was 0.
In the case of “GATTACCCATGGACCGGTTTTCCCGGTAATCCGTATTTGCT (site GATTAGCCTAG)”, the “recombinant UMI read abundance (log10)” value is reported as 0.
In the case of “GATTACCCATGGACCGGTTTTCCCGGTAATCCGTATTTGCT (site GATTATCCTAG)”, the “recombinant UMI read abundance (log10)” value is reported as 0.
With “GATTATCCATGGACCGGTTTTCCCGGTAATCCGTATTTGCT (site AATTATCCTAG)” the “recombinant UMI read abundance (log10)” value was 0.
For “GATTATCCATGGACCGGTTTTCCCGGTAATCCGTATTTGCT (site CATTATCCTAG)”, the “recombinant UMI read abundance (log10)” value was 0.436.
For “GATTATCCATGGACCGGTTTTCCCGGTAATCCGTATTTGCT (site GAATATCCTAG)”, the “recombinant UMI read abundance (log10)” value was 0.
For “GATTATCCATGGACCGGTTTTCCCGGTAATCCGTATTTGCT (site GACTATCCTAG)”, the “recombinant UMI read abundance (log10)” value was 0.
In the case of “GATTATCCATGGACCGGTTTTCCCGGTAATCCGTATTTGCT (site GAGTATCCTAG)”, the “recombinant UMI read abundance (log10)” value is reported as 0.
With “GATTATCCATGGACCGGTTTTCCCGGTAATCCGTATTTGCT (site GATAATCCTAG)” the “recombinant UMI read abundance (log10)” value was 0.
In the case of “GATTATCCATGGACCGGTTTTCCCGGTAATCCGTATTTGCT (site GATCATCCTAG)”, the “recombinant UMI read abundance (log10)” value is reported as 0.81.
With “GATTATCCATGGACCGGTTTTCCCGGTAATCCGTATTTGCT (site GATGATCCTAG)” the “recombinant UMI read abundance (log10)” value was 0.
In the case of “GATTATCCATGGACCGGTTTTCCCGGTAATCCGTATTTGCT (site GATTAACCTAG)”, the “recombinant UMI read abundance (log10)” value is reported as 0.
With “GATTATCCATGGACCGGTTTTCCCGGTAATCCGTATTTGCT (site GATTACCCTAG)” the “recombinant UMI read abundance (log10)” value was 0.
With “GATTATCCATGGACCGGTTTTCCCGGTAATCCGTATTTGCT (site GATTAGCCTAG)” the “recombinant UMI read abundance (log10)” value was 0.351.
For “GATTATCCATGGACCGGTTTTCCCGGTAATCCGTATTTGCT (site GATTATACTAG)”, the “recombinant UMI read abundance (log10)” value was 0.
For “GATTATCCATGGACCGGTTTTCCCGGTAATCCGTATTTGCT (site GATTATCCTAA)”, the “recombinant UMI read abundance (log10)” value was 0.00555.
In the case of “GATTATCCATGGACCGGTTTTCCCGGTAATCCGTATTTGCT (site GATTATCCTAC)”, the “recombinant UMI read abundance (log10)” value is reported as 0.0217.
With “GATTATCCATGGACCGGTTTTCCCGGTAATCCGTATTTGCT (site GATTATCCTAG)” the “recombinant UMI read abundance (log10)” value was 0.
With “GATTATCCATGGACCGGTTTTCCCGGTAATCCGTATTTGCT (site GATTATCCTAT)” the “recombinant UMI read abundance (log10)” value was 0.0146.
